These results are taken from patent US8382729B2, “Adhesive patch” (Hisamitsu Pharmaceutical Co., Inc., priority 2008, dated 2013).

Each structure is given as a SMILES string.

The series in a line: Measurement of plasma concentration after patch application. It counts as in vivo, human. To be noted: for AUC(0-t) / Cmax: male, human, in vivo. As for the experimental part:
The blood was collected at each of 0, 0.5, 1, 2, 3, 4, 6, 8, 10, 12, 18, and 24 hours from the start of the application, and the amount of blood collected each time was 7 mL.
The plasma concentrations of the methyl salicylate, its metabolite salicylic acid, and the 1-menthol were each measured. The measurement was performed by liquid chromatography-mass spectrometry for the salicylic acid and by gas chromatography-mass spectrometry for the methyl salicylate and the 1-menthol. Each of the measurement methods was validated beforehand to confirm measurement reliability. Incidentally, values obtained by subtracting an endogenous concentration before the application (measurement value on 0 hour from the start of the application) from an actual measurement value were used as plasma concentrations during the application. The Cmax and AUC0-24 were calculated according to the changes in the measurement values of these plasma concentrations over time.
Changes in the plasma concentrations of the salicylic acid, the methyl salicylate, and the 1-menthol over time are shown in FIG. 4 to FIG. 6. In addition, the pharmacokinetic parameters (mean, maximum value, and minimum value of Cmax and AUC0-24) of each of the drugs are shown in Table 6. Incidentally, a mean in the figure was an average value from the seven human subjects and represented using a standard deviation (SD). This measurement of the plasma concentrations was performed according to the guideline of FDA (U.S. Food and Drug Administration) (Gaidance for Industry=Bioanalytical Method Validation).

Where [1] appears, read: plasma, 280 cm^2 adhesive patch of Example 1 (methyl salicylate 336 mg, l-menthol 100 mg) applied 8 hours, seven healthy males, baseline-subtracted.
[2] abbreviates: plasma, 280 cm^2 adhesive patch of Example 1 applied 8 hours, seven healthy males.

On to `COC(=O)c1ccccc1O` [Methyl Salicylate], for which the AUC(0-t) (usually exposure summed from dosing to a finite time, without extrapolation to infinity) by setting is: (AUC0-24, Maximum Value) 50 ng·h/mL; (AUC0-24, Minimum Value) 8.1 ng·h/mL. For the same compound, the Cmax (as a rule, the maximum level reached in the sampled fluid or tissue) is 33 ng/mL (Maximum Value) and 3.5 ng/mL (Minimum Value).

Take `O=C(O)c1ccccc1O` [Salicylic Acid]: the exposure AUC(0-t) was 11800 ng·h/mL (AUC0-24, Maximum Value) and 3950 ng·h/mL (AUC0-24, Minimum Value). For the same compound, the Cmax by setting is: (Maximum Value) 1770 ng/mL; (Minimum Value) 705 ng/mL.

`CC(C)[C@@H]1CC[C@@H](C)C[C@H]1O` [l-Menthol]: under setting [1], the “AUC0-24, Mean ± SD” value was determined as 53.6 ± 33.4 ng·h/mL and the “Cmax, Mean ± SD” value amounted to 10.7 ± 6.4 ng/mL. Moreover, under setting [2], the “AUC0-24, Maximum Value” came to 109 ng·h/mL; the “AUC0-24, Minimum Value” is 15.4 ng·h/mL; the “Cmax, Maximum Value” is recorded as 22.5 ng/mL; the “Cmax, Minimum Value” is reported as 4.5 ng/mL.
